Test results from patent publication US20150050410A1, “COMPOUNDS, COMPOSITIONS, AND METHODS FOR MODULATING SWEET TASTE” (Chromocell Corporation, priority 2013, published 2015).

Experiments:
[1] = tested on: perception of sweet taste, in an aqueous solution, in humans; assay: Inherent sweetness assessment, difference from control "sip and spit" method; type: in vivo; details: no sweetener
Description: The taste test panelists used in the Examples 1-3 were selected using a sensory acuity screening program. Candidate taste panelists were recruited, with prescreening and personal interviews, and were assessed and for their ability to detect, recognize and differentiate basic taste attributes or mixtures thereof as part of a standardized acuity test. This included basic tastes of sweet, sour, salty, bitter and umami, as well as having the capacity to focus on specific aspects of sensory character such as ranking the various tastes perceived and identifying the basic tastes presented at threshold levels.
The aqueous sucrose solutions were prepared by adding, sucrose (by weight), to water to achieve the desired concentration.
Compounds were first prepared as a 500-fold concentrated stock solution in 100% ethanol. These concentrated stocks were then added to water to result in a final ethanol concentration of 0.2%. The control (including positive control) samples were also normalized to 0.2% ethanol. This level of ethanol was not seen to contribute any perceived sweetness.
The intrinsic effect of test compounds on the perception of sweet taste, in an aqueous solution, in humans was evaluated using a difference from control “sip and spit” method employing a verbal category scale.
In this method, panelists (n=12) evaluate one pair of samples at a time—one sample contains water plus compound (i.e. test) while the other contains water without compound (i.e. control). Panelists were instructed to first taste the un-blinded control followed by the test sample and asked to rate the size of sweetness difference between the test and control sample, using a 6 point verbal category scale:
Verbal Category Scale • No difference • Slight difference • Slight/moderate difference • Moderate difference • Moderate/large difference • Very large difference […]

[2] = tested on: perception of the sweet taste in humans; assay: Trained descriptive analysis (DA) panel, sweet attribute; type: in vivo; details: for compound effects beyond the additive effect of inherent sweetness: 4% fructose and 8% sucrose; for DA Panel Average Sweetness Intensity Score (on 15 cm scale): inherent sweetness, 35 ppm compound plus solubilizing agent, 1 cm = 1% sucrose
Description: The effect of the test compounds on the perception of the sweet taste in an aqueous environment, in the absence or presence of carbohydrate sweeteners, was evaluated using a descriptive analysis methodology with a group of trained panelists, as follows.
Candidate panelists were recruited, with prescreening and personal interviews, and were assessed for their ability to detect, recognize and differentiate basic taste attributes or mixtures thereof as part of a standardized acuity test. These candidate panelists were also assessed for their innate ability to identify flavors, and to rank on intensity scales. Other senses such as smell and vision were also included as part of the assessment. Candidates also were screened for their ability to use the language to describe and articulate ideas.
Selected candidates proceeded to training as a group in three phases: (1) Lexicon development, (2) Concept alignment, and (3) Scaling descriptors. During lexicon development, panelists evaluated products appropriate for use in the study to generate and align on terms describing the flavor, taste, aromatic, trigeminal, and temporal attributes. During concept alignment, the panel evaluated the products mentioned above to clarify and confirm the attributes that were generated during lexicon development using reference standards that appropriately define each attribute; these are either physical references (e.g. sucrose solutions) or verbal descriptions (e.g. overall flavor). Product terms and concepts were validated during this portion of the study.
In the last phase, scaling descriptors, the panel participated in a series of exercises focused on ordering and ranking samples according to relative attribute intensity, measuring attribute intensity using a defined length of line scale. Whenever possible, different levels or concentration of references were used as anchors to facilitate use of the scale. Panelists were provided with blinded references at this stage to evaluate their understanding and perception of the scale.
The panel used in this example was trained to reference sweet attributes in an absolute manner, such that a particular concentration of sweetener is always measured by the panelists at the same point using a 15 cm line scale where each cm represents a 1% increase in sucrose to cover the range of 0% to 15% sucrose. For the rest of the attributes, the panel was trained using a hybrid approach between descriptive analysis methods (e.g. quantitative descriptive analysis, the sensory spectrum, etc.) well-known to those skilled in the art.
The trained panel was then used for a descriptive analysis assessment for Compounds 1, 2 and 3 in aqueous solutions at pH 3 and pH 7. Each of the three compounds was tested at 35 ppm in sucrose and fructose sweeteners. In addition, Compounds 1, 2 and 3 were also examined in water at pH 3 and pH 7 to assess for any inherent sweetness.
The aqueous sweetener solutions were prepared by adding, fructose or sucrose (by weight), to water to achieve the desired concentration. Aqueous sucrose solutions at pH 3 were buffered using a final concentration of 0.096% Citric Acid plus 0.036% Sodium Citrate while aqueous fructose solutions at pH 3 were buffered using a final concentration of 0.06% Citric Acid and 0.0225% Sodium Citrate.
Compounds were first prepared as a […] concentrated stock solution in 100% ethanol. These concentrated stocks were then added to the aqueous sweetener solutions to result in a final ethanol concentration of 0.2%. In addition to compounds, a solubilizing agent at a final concentration of 0.02% was added to the aqueous sweetener solutions. Control samples were also balanced with 0.2% ethanol and in certain cases 0.02% solubilizing agent.
Both control (aqueous sweetener solutions without compound) and variant (aqueous sweetener solutions with compound) samples were blinded and randomized (by sweetener and pH blocks). […]

## COc1ccc(C2CC(=O)c3c(O)cccc3O2)cc1O (racemic) [Compound 1, 5-hydroxy-2-(3-hydroxy-4-methoxyphenyl)chroman-4-one]
[1]; compound 10 ppm in water
  Correlated Inherent Sweetness Assessment: 0% sucrose
[1]; compound 15 ppm in water
  Correlated Inherent Sweetness Assessment: 0%-0.5%
[1]; compound 25 ppm in water
  Correlated Inherent Sweetness Assessment: 0%-0.5%
[2]; pH 3, 35 ppm, Table 7 vs Table 5
  compound effects beyond the additive effect of inherent sweetness: super-additive effects
[2]; pH 7, 35 ppm, Table 6 vs Table 4
  compound effects beyond the additive effect of inherent sweetness: super-additive effects
[2]; aqueous fructose and sucrose solutions at pH 3, 35 ppm, ** p<0.01
  perceived sweetness compared to control sweetener solutions (FIG. 2): significant increase in perceived sweetness
[2]; aqueous fructose and sucrose solutions at pH 7, 35 ppm, ** p<0.01
  perceived sweetness compared to control sweetener solutions (FIG. 1): significant increase in perceived sweetness
[2]; citric acid-citrate solution pH 3
  DA Panel Average Sweetness Intensity Score (on 15 cm scale): do not show further significant increase in perceived inherent sweetness
[2]; water pH 7
  DA Panel Average Sweetness Intensity Score (on 15 cm scale): further increase in perceived sweetness
